# US20250025387A1, “COMPOSITION FOR THE TREATMENT OF THE SKIN OF DIABETES PATIENTS” (MIBELLE AG, priority 2021, published 2025)
# “Also recorded” adds a separate entry of the source.
# Tests used:
# loricrin = test: Loricrin expression stain of 3D epidermis (immunohistochemistry); format: cell-based, human; conditions: 1.1 mM apical, 0.3 mM CaCl2·2H2O basal, 9 days of differentiation
# Description: (§1) The effect of the Ca^2+ phospholipid complexes on the differentiation of 3D-reconstructed epidermis was investigated. To this end, keratinocyte progenitor cells were cultivated in low-calcium growth medium (TAK-GM, 0.03 mM calcium chloride dihydrate (CaCl2·2H2O)) and were then used to reconstruct a 3D epidermis. For this purpose, the medium was replaced by a 3D differentiation medium (TAK-3D) containing 1.1 mM CaCl2·2H2O and the cells were grown in the medium for a further day. The cultures were then contacted with the air in order to induce differentiation and formation of the skin barrier, and grown for a further 9 days with changing of the medium every second day in the following way: • Condition 1: 1.1 mM CaCl2·2H2O from the basal side (TAK-3D). This is the standard condition for efficient epidermis formation. • Condition 2: 0.3 mM CaCl2·2H2O from the basal side (low calcium concentration). The calcium concentration was reduced here in order to cause impaired formation of the epidermis and thus produce an impaired skin barrier. This is the minimum necessary calcium concentration that must be present on the basal side in order to ensure formation of the epidermis. • Condition 3: 0.3 mM CaCl2·2H2O from the basal side+1.1 mM CaCl2·2H2O from the apical side. Here, calcium was additionally added to the 3D epidermis apically in the form of calcium chloride dihydrate. […]
# [1] = system: 3D-reconstructed epidermis; test: Rebuilding of the epidermis structure in an in vitro skin model, control CaCl2 (hematoxylin-eosin stain); format: cell-based, human; conditions: 1.1 mM apical, 0.3 mM CaCl2·2H2O basal, 9 days of differentiation; dihydrate
# Description: as §1
# involucrin = test: Involucrin expression in skin explants after topical treatment in Franz diffusion cells; format: cell-based; conditions: gel containing 0.013% CaCl2·2H2O, topical 24 hours, 20 mg
# Description: The effect of a topical treatment with Ca^2+ phospholipid complex on the expression of the epidermis differentiation marker involucrin was investigated in skin explants. […] Thereafter, the skin explants were washed with 3 ml of water and frozen at −80° C. The tissues were fixed in formaldehyde and embedded in paraffin. Tissue sections of 5 μm were prepared and mounted on glass slides before deparaffination. The slides were stained with hematoxylin-eosin stain to analyze tissue structure. The protein expression of involucrin was determined by immunohistochemical staining and quantified by image analysis.
smiles,measurement,setting,value
"O.O.[Ca+2].[Cl-].[Cl-] [CaCl2·2H2O, calcium chloride dihydrate]",expression of the epidermal differentiation marker loricrin,loricrin,reduced loricrin production
same,formation of 3D epidermis (hematoxylin-eosin stain),[1],impairment of epidermis formation; also recorded: additionally worsened the formation of a 3D epidermis
same,reduction of involucrin expression compared to the placebo-treated skin explant,involucrin,91.1%
